These are literature values, as cited in publication PMC3019532 (Current radiopharmaceuticals, 2010).

The conditions of series [1]: rat, in vivo; cited from earlier work.
Series [2] relates to CA20948 rat pancreatic tumor cells. To be noted: 1 h of incubation with 1 × 10^5 CA20948 cells; cited from earlier work.

As to “[^177Lu-DOTA^0,Tyr^3]octreotate [[^177Lu]DOTA-TATE]”, in series [1], the “metabolism, form present in urine” value was “predominantly intact form”. Moreover, in series [2], the dose internalized result was “about 0.03%”.
